Laboratory results published in US7439035B1, “Method of identifying or characterizing a compound that modulates ribonuclease H activity” (McGill University, priority 2001, dated 2008).

Assays:
[1] = biological target: T1, HIV-1 RT associated RNase H (Human immunodeficiency virus type 1 group M subtype B, UniProt P04585); assay: FRET RNase H assay, inhibition of HIV-1 RT associated RNase H; format: biochemical; conditions: 1.5 nM p51/p66 RT, 100 nM 3'-fluorescein-RNA/5'-DABCYL-DNA substrate, 37° C., 15 min preincubation; read-out: IC50 for BBNH obtained with the FRET assay
T1 construct: final concentration of 2.5 nM of the p51/p66 RT heterodimer in the assay; made in house
Method: Microplate assay protocol for the measurement of RNase H activity using the RNA/DNA hybrid duplex substrate. Reaction assay mixtures contained 5 μl of a stock solution of 2.5 μM RNA/DNA hybrid duplex substrate added to 85 μl of assay buffer (50 mM Tris, pH 8.0, 37° C., containing 60 mM KCl and 2.5 mM MgCl2), prepared in the wells of a 96-well fluorescence microtiter plate, and warmed to 37° C. using the temperature control of the SpectraMax Gemini XS microplate spectrofluorometer (Molecular Devices). Reactions were started by the addition of 5 μl of a solution of recombinant HIV-1 reverse transcriptase (usually providing a final concentration of 2.5 nM of the p51/p66 RT heterodimer in the assay, and mixing using the automatic mixing function of the microplate spectrofluorometer. The reverse transcriptase for use in this assay was prepared as described by Fletcher R S et al, Single step purification of HIV-1 recombinant wild type and mutant reverse transcriptase, Protein Expression and Purification 7:27-32, 1996. The increase in fluorescence signal resulting from the loss of FRET due to the enzymatic hydrolysis of the RNA strand was measured over suitable time intervals (ranging from 3 minutes to 60 minutes), at an excitation wavelength of 490 nm and an emission wavelength of 528 nm, using a cut-off filter of 515 nm. […]

[2] = biological target: T1, HIV-1 RT associated RNase H; assay: Gel electrophoretic RNase H assay, inhibition of HIV-1 RT associated RNase H; format: biochemical; conditions: 1.5 nM p51/p66 RT, 100 nM [32P]-RNA/DNA substrate, 37° C., densitometry of undegraded RNA; read-out: IC50 for BBNH obtained with the gel assay
From the text: The gel electrophoretic assay used 5′-[^32P]-RNA of the sequence 5′-GAU CUG AGC CUG GGA GCU-3′ (SEQ ID NO: 7; identical to that of the FRET RNA, but lacking the 3′-fluorescein), prepared by the transfer of ^32P from [γ-^32P]-ATP in a reaction catalyzed by bacteriophage T4 polynucleotide kinase. This 5′[^32P]-RNA oligonucleotide was annealed to complementary unlabeled DNA of the sequence 5′-AGC TCC CAG GCT CAG ATC-3′ (SEQ ID NO: 8) to form the [^32P]-RNA/DNA hybrid duplex substrate. Aliquots of 100 μl of 50 mM Tris/HCl (pH 8.0, 37° C.), containing 60 mM KCl and 2.5 mM MgCl2, 1.5 nM p51/p66 RT and variable amounts of BBNH inhibitor were added to individual microtubes and incubated at 37° C. for 15 minutes. […] The extent of RNase H activity can be determined quantitatively by densitometric analysis of the time-dependent disappearance of the full-length RNA substrate and/or the appearance of the smaller degradation products. In this experiment, the bands corresponding to the undegraded 18 nucleotide 5′-[^32P]-RNA were quantified by densitometry, using the software UN-SCAN-IT (Silk Scientific, Orem, Utah). The IC50 values for BBNH inhibition of HIV-1 RT associated RNase H activity were calculated from plots of the residual undegraded 5′[^32P]-RNA vs. drug concentration.

CC(C)(C)c1ccc(C(=O)NN=Cc2c(O)ccc3ccccc23)cc1 [BBNH, N-(4-tert-butylbenzoyl)-2-hydroxy-1-naphthaldehyde hydrazone]
IC50 [1]: 2600 ± 500 nM | IC50 [2]: 3000 ± 1200 nM
